Results taken from US6653455B1, “Crystallization of doxorubicin hydrochloride” (Mercian Corporation, priority 1998, dated 2003).
Structures can show the parent of a compound that is named as a salt. Marks after values point to notes of the source that are not given here.

Experiment: Hygroscopicity, cup method (weight change)
Assay type: physicochemical
Conditions: weight-increasing rate, 25° C., 50 to 60% RH, 15 minutes; crystals dried at 40° C. under vacuum; hydrochloride
Procedure: Determined by the following cup method. To be specific, about 15 to 20 mg of the sample was put in a cylindrical cup having a diameter of 6 mm and a depth of 6 mm and left standing at a fixed temperature (25° C.) and relative humidity (50 to 60% RH) for 15 minutes to measure a weight change, whereby the hygroscopicity was evaluated.
In the following respective examples, a weight-increasing rate of 0.40% or more is shown by an evaluation criterion that the hygroscopicity is large (−); a weight-increasing rate of 0.20% or more and less than 0.40% is shown by an evaluation criterion that the hygroscopicity is ;intermediate (±); and a weight-increasing rate of less than 0.20% is shown by an evaluation criterion that the hygroscopicity is small: (+).

**Q.** With COc1cccc2c1C(=O)c1c(O)c3c(c(O)c1C2=O)C[C@@](O)(C(=O)CO)C[C@@H]3O[C@H]1C[C@H](N)[C@H](O)[C@H](C)O1 [Example 30, doxorubicin hydrochloride] as the compound, how does the Hygroscopicity read?
**A.** The Hygroscopicity was “+ (a weight-increasing rate of less than 0.20% is shown by an evaluation criterion that the hygroscopicity is small: (+))”.

**Q.** For COc1cccc2c1C(=O)c1c(O)c3c(c(O)c1C2=O)C[C@@](O)(C(=O)CO)C[C@@H]3O[C@H]1C[C@H](N)[C@H](O)[C@H](C)O1 [Example 20, doxorubicin hydrochloride], which Hygroscopicity is on record?
**A.** The Hygroscopicity was “+ (a weight-increasing rate of less than 0.20% is shown by an evaluation criterion that the hygroscopicity is small: (+))”.

**Q.** For COc1cccc2c1C(=O)c1c(O)c3c(c(O)c1C2=O)C[C@@](O)(C(=O)CO)C[C@@H]3O[C@H]1C[C@H](N)[C@H](O)[C@H](C)O1 [Example 45, doxorubicin hydrochloride], which Hygroscopicity is on record?
**A.** Its Hygroscopicity is “+ (a weight-increasing rate of less than 0.20% is shown by an evaluation criterion that the hygroscopicity is small: (+))”.

**Q.** With COc1cccc2c1C(=O)c1c(O)c3c(c(O)c1C2=O)C[C@@](O)(C(=O)CO)C[C@@H]3O[C@H]1C[C@H](N)[C@H](O)[C@H](C)O1 [Example 19, doxorubicin hydrochloride] as the compound, how does the Hygroscopicity read?
**A.** The Hygroscopicity was “± (a weight-increasing rate of 0.20% or more and less than 0.40% is shown by an evaluation criterion that the hygroscopicity is ;intermediate (±))”.

**Q.** Which Hygroscopicity does the source give for COc1cccc2c1C(=O)c1c(O)c3c(c(O)c1C2=O)C[C@@](O)(C(=O)CO)C[C@@H]3O[C@H]1C[C@H](N)[C@H](O)[C@H](C)O1 [Example 23, doxorubicin hydrochloride] here?
**A.** Its Hygroscopicity is “± (a weight-increasing rate of 0.20% or more and less than 0.40% is shown by an evaluation criterion that the hygroscopicity is ;intermediate (±))”.

**Q.** With COc1cccc2c1C(=O)c1c(O)c3c(c(O)c1C2=O)C[C@@](O)(C(=O)CO)C[C@@H]3O[C@H]1C[C@H](N)[C@H](O)[C@H](C)O1 [Example 33, doxorubicin hydrochloride] as the compound, how does the Hygroscopicity read?
**A.** The Hygroscopicity was “± (a weight-increasing rate of 0.20% or more and less than 0.40% is shown by an evaluation criterion that the hygroscopicity is ;intermediate (±))”.

**Q.** For COc1cccc2c1C(=O)c1c(O)c3c(c(O)c1C2=O)C[C@@](O)(C(=O)CO)C[C@@H]3O[C@H]1C[C@H](N)[C@H](O)[C@H](C)O1 [Example 16, doxorubicin hydrochloride], which Hygroscopicity is on record?
**A.** The Hygroscopicity was “± (a weight-increasing rate of 0.20% or more and less than 0.40% is shown by an evaluation criterion that the hygroscopicity is ;intermediate (±))”.

**Q.** With COc1cccc2c1C(=O)c1c(O)c3c(c(O)c1C2=O)C[C@@](O)(C(=O)CO)C[C@@H]3O[C@H]1C[C@H](N)[C@H](O)[C@H](C)O1 [Example 13, doxorubicin hydrochloride] as the compound, how does the Hygroscopicity read?
**A.** Its Hygroscopicity is “± (a weight-increasing rate of 0.20% or more and less than 0.40% is shown by an evaluation criterion that the hygroscopicity is ;intermediate (±))”.

**Q.** For COc1cccc2c1C(=O)c1c(O)c3c(c(O)c1C2=O)C[C@@](O)(C(=O)CO)C[C@@H]3O[C@H]1C[C@H](N)[C@H](O)[C@H](C)O1 [Example 49, doxorubicin hydrochloride], which Hygroscopicity is on record?
**A.** The Hygroscopicity was “+ (a weight-increasing rate of less than 0.20% is shown by an evaluation criterion that the hygroscopicity is small: (+))”.

**Q.** Which Hygroscopicity does the source give for COc1cccc2c1C(=O)c1c(O)c3c(c(O)c1C2=O)C[C@@](O)(C(=O)CO)C[C@@H]3O[C@H]1C[C@H](N)[C@H](O)[C@H](C)O1 [Example 32, doxorubicin hydrochloride] here?
**A.** The Hygroscopicity was “+ (a weight-increasing rate of less than 0.20% is shown by an evaluation criterion that the hygroscopicity is small: (+))”.

Experiment: Average particle diameter, microscopic method (Heywood circle-corresponding diameter)
Assay type: physicochemical
Conditions: 10 typical crystals on photograph, hydrochloride
Source text: The average particle diameter is shown by a diameter of a circle having the same area as an injected area of the particle, a so-called Heywood diameter (circle-corresponding diameter) according to a microscopic method (injected image). A small amount of the crystals was put on a slide glass, and 1 to 2 drops of a hydrophilic surfactant (sesquioleic acid sorbitan) were fallen thereon to disperse them. It was photographed by means of a polarization microscope (photographing lens: 3.3 magnifications, objective lens: 20 magnifications) equipped with a photographing device. Optional 10 pieces of the typical crystals were selected on the photograph to measure a long diameter and a short diameter thereof An (projected) area of the particle was shown by long diameter×short diameter, and the particle diameter was shown by a diameter of a circle having the same area as that obtained above.

**Q.** Which Average particle diameter does the source give for COc1cccc2c1C(=O)c1c(O)c3c(c(O)c1C2=O)C[C@@](O)(C(=O)CO)C[C@@H]3O[C@H]1C[C@H](N)[C@H](O)[C@H](C)O1 [Example 30, doxorubicin hydrochloride] here?
**A.** The Average particle diameter was 39 μm.

**Q.** For COc1cccc2c1C(=O)c1c(O)c3c(c(O)c1C2=O)C[C@@](O)(C(=O)CO)C[C@@H]3O[C@H]1C[C@H](N)[C@H](O)[C@H](C)O1 [Example 20, doxorubicin hydrochloride], which Average particle diameter is on record?
**A.** Its Average particle diameter is 7 μm.

**Q.** With COc1cccc2c1C(=O)c1c(O)c3c(c(O)c1C2=O)C[C@@](O)(C(=O)CO)C[C@@H]3O[C@H]1C[C@H](N)[C@H](O)[C@H](C)O1 [Example 45, doxorubicin hydrochloride] as the compound, how does the Average particle diameter read?
**A.** Its Average particle diameter is 46 μm.

**Q.** Which Average particle diameter does the source give for COc1cccc2c1C(=O)c1c(O)c3c(c(O)c1C2=O)C[C@@](O)(C(=O)CO)C[C@@H]3O[C@H]1C[C@H](N)[C@H](O)[C@H](C)O1 [Example 19, doxorubicin hydrochloride] here?
**A.** Its Average particle diameter is 17 μm.

**Q.** With COc1cccc2c1C(=O)c1c(O)c3c(c(O)c1C2=O)C[C@@](O)(C(=O)CO)C[C@@H]3O[C@H]1C[C@H](N)[C@H](O)[C@H](C)O1 [Example 23, doxorubicin hydrochloride] as the compound, how does the Average particle diameter read?
**A.** The Average particle diameter was 39 μm.

**Q.** For COc1cccc2c1C(=O)c1c(O)c3c(c(O)c1C2=O)C[C@@](O)(C(=O)CO)C[C@@H]3O[C@H]1C[C@H](N)[C@H](O)[C@H](C)O1 [Example 33, doxorubicin hydrochloride], which Average particle diameter is on record?
**A.** The Average particle diameter was 25 μm.

**Q.** With COc1cccc2c1C(=O)c1c(O)c3c(c(O)c1C2=O)C[C@@](O)(C(=O)CO)C[C@@H]3O[C@H]1C[C@H](N)[C@H](O)[C@H](C)O1 [Example 16, doxorubicin hydrochloride] as the compound, how does the Average particle diameter read?
**A.** Its Average particle diameter is under 4 μm.

**Q.** For COc1cccc2c1C(=O)c1c(O)c3c(c(O)c1C2=O)C[C@@](O)(C(=O)CO)C[C@@H]3O[C@H]1C[C@H](N)[C@H](O)[C@H](C)O1 [Example 13, doxorubicin hydrochloride], which Average particle diameter is on record?
**A.** The Average particle diameter was under 4 μm.

**Q.** With COc1cccc2c1C(=O)c1c(O)c3c(c(O)c1C2=O)C[C@@](O)(C(=O)CO)C[C@@H]3O[C@H]1C[C@H](N)[C@H](O)[C@H](C)O1 [Example 49, doxorubicin hydrochloride] as the compound, how does the Average particle diameter read?
**A.** Its Average particle diameter is 71 μm.

**Q.** For COc1cccc2c1C(=O)c1c(O)c3c(c(O)c1C2=O)C[C@@](O)(C(=O)CO)C[C@@H]3O[C@H]1C[C@H](N)[C@H](O)[C@H](C)O1 [Example 32, doxorubicin hydrochloride], which Average particle diameter is on record?
**A.** Its Average particle diameter is 34 μm.

Same assay, conditions: 10 typical crystals on photograph, listed as DXR.USP standard product (Lot J), hydrochloride

**Q.** For COc1cccc2c1C(=O)c1c(O)c3c(c(O)c1C2=O)C[C@@](O)(C(=O)CO)C[C@@H]3O[C@H]1C[C@H](N)[C@H](O)[C@H](C)O1 [DXR.USP (comparison), doxorubicin hydrochloride], which Average particle diameter is on record?
**A.** Its Average particle diameter is 28 μm.

Experiment: Solubility test (dissolving time in water)
Assay type: physicochemical
Conditions: 50 mg sample in 5 ml water, 25° C., about 600 rounds/minute stirring, time until completely dissolved; hydrochloride
Procedure: A beaker of 20 ml (minor diameter: 30 mm) was charged with 5 ml of water and then 50 mg of a DOX.HCl crystal sample, and the sample was stirred at 25° C. and about 600 rounds/minute by means of a magnetic stirrer (diameter 6 mm×length 10 mm). Time consumed until the sample was completely dissolved was measured wile observing the dissolving state every 30 seconds with naked eyes.
The solubility test described above was carried out for a DXR.USP standard product (Lot J) (average particle diameter: 28 μm) as comparison and Examples 2, 46,51, 55, 56, 57 and 58, and the results thereof are shown in Table III.

**Q.** For COc1cccc2c1C(=O)c1c(O)c3c(c(O)c1C2=O)C[C@@](O)(C(=O)CO)C[C@@H]3O[C@H]1C[C@H](N)[C@H](O)[C@H](C)O1 [DXR.USP (comparison), doxorubicin hydrochloride], which Dissolving time is on record?
**A.** Its Dissolving time is 3-3.5* minute.
